Reference: patent US4013791A, “Peptides having an antihypertensive effect” (Hoechst Aktiengesellschaft, priority 1974, dated 1977)

How the values were obtained:
angiotensin II (AT II) [1] = experiment: Potency of AT II analogs: inhibition of the increase in blood pressure caused by AT II, with and without infusion of the analog; format: in vivo; conditions: for Inhibiting effect in percent, 0.5mcg/kg i.v. AT II: AT II 0.5mcg/kg i.v.; for Inhibiting effect in percent, 1mcg/kg i.v. AT II: AT II 1mcg/kg i.v.; for Inhibiting effect in percent, 2mcg/kg i.v. AT II: AT II 2mcg/kg i.v.
Description: (§1) The potency of the AT II analogs is determined by measuring the increase in blood pressure caused by increasing amounts of AT II with and without infusion of the analog to be tested, at different dosages; duration of action is determined on the basis of the time during which a single injection of the analog to be tested is effective under permanent infusion of AT II.

angiotensin II (AT II) [2] = experiment: Duration of action of a single injection of the analog under permanent infusion of AT II; format: in vivo; conditions: single injection 0.1mg/kg i.v. under permanent infusion of AT II
Description: as §1

[3] = analog infusion 1 mcg/kg/min i.v.
[4] = analog infusion 5 mcg/kg/min i.v.
[5] = analog infusion 10mcg/kg/min i.v.

Substance | Inhibiting effect in percent, 0.5mcg/kg i.v. AT II (angiotensin II (AT II) [1]; [3]) [%] | Inhibiting effect in percent, 0.5mcg/kg i.v. AT II (angiotensin II (AT II) [1]; [4]) [%] | Inhibiting effect in percent, 0.5mcg/kg i.v. AT II (angiotensin II (AT II) [1]; [5]) [%] | Inhibiting effect in percent, 1mcg/kg i.v. AT II (angiotensin II (AT II) [1]; [3]) [%] | Inhibiting effect in percent, 1mcg/kg i.v. AT II (angiotensin II (AT II) [1]; [4]) [%] | Inhibiting effect in percent, 1mcg/kg i.v. AT II (angiotensin II (AT II) [1]; [5]) [%] | Inhibiting effect in percent, 2mcg/kg i.v. AT II (angiotensin II (AT II) [1]; [3]) [%] | Inhibiting effect in percent, 2mcg/kg i.v. AT II (angiotensin II (AT II) [1]; [4]) [%] | Inhibiting effect in percent, 2mcg/kg i.v. AT II (angiotensin II (AT II) [1]; [5]) [%] | duration of action in min. 0.1mg/kg i.v. (angiotensin II (AT II) [2]) [min]
Succinamoyl--Arg--Val--Tyr--Val--His--Pro--Phegly--OH [[Suc^1,Val^5 pgl^8] AT II] | 42 | 88 | 98 | 51 | 94 | 94 | 55 | 93 | 92 | 89 ± 22
[1-sarcosine,5-valine, 8-alanine] angiotensin II [[Sar^1,Val^5 Ala^8] AT II] | 0 | 63 | 88 | 22 | 76 | 90 | 31 | 75 | 89 | 66 ± 21
